Data set [1] is described as follows: Half life in 12 hr fasted SPF Sprague-Dawley rat at 5 mg/kg, iv upon 2 hrs fasting post-administration measured upto 24 hrs. The settings on record: in vivo. The class given is ADME, organism-based.
Data set [2] deals with Receptor-type tyrosine-protein kinase FLT3 (Homo sapiens) (UniProt P36888). As to the kind of experiment: Inhibition of human FLT3 at 0.5 uM relative to control.
Data set [3] addresses Tyrosine-protein kinase TXK (Homo sapiens) (UniProt P42681). As to the kind of experiment: Inhibition of TXK (unknown origin) at 0.5 uM relative to control.
Data set [4] has as its system U-937. Briefly: Induction of cell cycle arrest in human U-937 cells assessed as accumulation at G0/G1 phase at 3.7 nM measured after 24 hrs by propidium iodide staining based flow cytometric analysis (reference value: 62.95%). The class given is functional.
Data set [5] deals with U-937. Briefly: Induction of cell cycle arrest in human U-937 cells assessed as accumulation at G0/G1 phase at 33 nM measured after 24 hrs by propidium iodide staining based flow cytometric analysis (reference value: 62.95%). Type of data set: functional. (In flow cytometry, cells or beads pass a laser one at a time.)
The test system of data set [6] is U-937. As to the kind of experiment: Induction of cell cycle arrest in human U-937 cells assessed as accumulation at G0/G1 phase at 300 nM measured after 24 hrs by propidium iodide staining based flow cytometric analysis (reference value: 62.95%). Type of data set: functional.
In data set [7] the test system is U-937. As to the kind of experiment: Induction of cell cycle arrest in human U-937 cells assessed as accumulation at S phase at 33 nM measured after 24 hrs by propidium iodide staining based flow cytometric analysis (reference value: 15.35%). The class given is functional.
Data set [8] has as its target NUAK family SNF1-like kinase 1 (Homo sapiens) (UniProt O60285). Briefly: Inhibition of human ARK5 at 0.5 uM assessed as competition rate relative to control.
The target in data set [9] is Cyclin-dependent kinase 16 (Homo sapiens) (UniProt Q00536). As to the kind of experiment: Inhibition of human CDK16 at 0.5 uM assessed as competition rate relative to control.
Cyclin-dependent kinase 16 (Homo sapiens), sequence (Q00536 whole entry): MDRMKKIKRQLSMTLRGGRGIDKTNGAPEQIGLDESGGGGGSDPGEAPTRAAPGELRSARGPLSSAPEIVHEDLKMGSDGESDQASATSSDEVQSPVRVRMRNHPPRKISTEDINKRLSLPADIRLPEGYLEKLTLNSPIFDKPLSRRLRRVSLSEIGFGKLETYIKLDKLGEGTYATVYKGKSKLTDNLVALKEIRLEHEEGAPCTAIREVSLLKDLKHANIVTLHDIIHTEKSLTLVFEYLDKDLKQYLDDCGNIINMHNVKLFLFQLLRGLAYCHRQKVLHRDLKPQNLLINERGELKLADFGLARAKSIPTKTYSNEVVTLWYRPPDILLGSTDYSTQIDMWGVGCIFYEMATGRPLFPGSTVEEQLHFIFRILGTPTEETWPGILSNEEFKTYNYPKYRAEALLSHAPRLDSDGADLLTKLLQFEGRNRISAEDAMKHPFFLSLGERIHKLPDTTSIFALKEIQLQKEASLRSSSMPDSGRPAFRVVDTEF
The target in data set [10] is Receptor tyrosine-protein kinase erbB-4 (Homo sapiens) (UniProt Q15303). Briefly: Inhibition of HER4 (unknown origin) at 0.5 uM assessed as competition rate relative to control.
Receptor tyrosine-protein kinase erbB-4 (Homo sapiens), sequence (Q15303 whole entry): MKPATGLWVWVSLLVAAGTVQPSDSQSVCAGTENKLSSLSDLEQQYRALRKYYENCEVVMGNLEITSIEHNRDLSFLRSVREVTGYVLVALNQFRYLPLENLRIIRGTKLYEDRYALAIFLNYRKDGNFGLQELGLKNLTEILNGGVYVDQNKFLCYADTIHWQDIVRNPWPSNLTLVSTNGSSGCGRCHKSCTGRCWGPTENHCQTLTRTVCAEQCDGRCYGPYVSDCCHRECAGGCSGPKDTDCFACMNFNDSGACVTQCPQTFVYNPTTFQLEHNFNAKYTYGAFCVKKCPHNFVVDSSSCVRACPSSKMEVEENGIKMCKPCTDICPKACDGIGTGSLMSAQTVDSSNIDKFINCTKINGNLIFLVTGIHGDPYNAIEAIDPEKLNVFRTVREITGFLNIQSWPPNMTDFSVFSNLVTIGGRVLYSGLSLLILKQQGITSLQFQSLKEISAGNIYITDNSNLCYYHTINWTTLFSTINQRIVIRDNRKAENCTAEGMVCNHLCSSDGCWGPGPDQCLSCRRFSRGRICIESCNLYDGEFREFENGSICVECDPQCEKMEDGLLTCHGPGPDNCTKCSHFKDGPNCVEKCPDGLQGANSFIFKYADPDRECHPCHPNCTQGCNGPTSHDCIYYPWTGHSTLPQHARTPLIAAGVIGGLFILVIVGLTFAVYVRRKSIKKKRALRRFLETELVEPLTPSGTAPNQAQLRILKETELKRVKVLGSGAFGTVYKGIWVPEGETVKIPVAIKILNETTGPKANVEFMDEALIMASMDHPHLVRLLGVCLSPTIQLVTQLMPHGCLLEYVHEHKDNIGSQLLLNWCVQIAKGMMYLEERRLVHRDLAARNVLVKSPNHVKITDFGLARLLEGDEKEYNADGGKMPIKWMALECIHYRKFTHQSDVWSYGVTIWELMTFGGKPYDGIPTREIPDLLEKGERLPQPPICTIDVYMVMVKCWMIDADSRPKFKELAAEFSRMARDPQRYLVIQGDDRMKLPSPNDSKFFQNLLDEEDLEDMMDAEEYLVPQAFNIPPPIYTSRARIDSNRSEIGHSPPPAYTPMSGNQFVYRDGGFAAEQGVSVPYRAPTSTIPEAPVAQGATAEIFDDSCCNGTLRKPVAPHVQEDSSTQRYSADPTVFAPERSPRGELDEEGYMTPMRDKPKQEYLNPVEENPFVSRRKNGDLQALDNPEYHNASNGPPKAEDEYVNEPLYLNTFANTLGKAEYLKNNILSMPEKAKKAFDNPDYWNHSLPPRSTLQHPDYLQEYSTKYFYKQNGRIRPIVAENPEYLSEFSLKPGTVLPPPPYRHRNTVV

SMILES strings stand for the structures.

NUAK family SNF1-like kinase 1 (Homo sapiens), sequence (O60285 whole entry): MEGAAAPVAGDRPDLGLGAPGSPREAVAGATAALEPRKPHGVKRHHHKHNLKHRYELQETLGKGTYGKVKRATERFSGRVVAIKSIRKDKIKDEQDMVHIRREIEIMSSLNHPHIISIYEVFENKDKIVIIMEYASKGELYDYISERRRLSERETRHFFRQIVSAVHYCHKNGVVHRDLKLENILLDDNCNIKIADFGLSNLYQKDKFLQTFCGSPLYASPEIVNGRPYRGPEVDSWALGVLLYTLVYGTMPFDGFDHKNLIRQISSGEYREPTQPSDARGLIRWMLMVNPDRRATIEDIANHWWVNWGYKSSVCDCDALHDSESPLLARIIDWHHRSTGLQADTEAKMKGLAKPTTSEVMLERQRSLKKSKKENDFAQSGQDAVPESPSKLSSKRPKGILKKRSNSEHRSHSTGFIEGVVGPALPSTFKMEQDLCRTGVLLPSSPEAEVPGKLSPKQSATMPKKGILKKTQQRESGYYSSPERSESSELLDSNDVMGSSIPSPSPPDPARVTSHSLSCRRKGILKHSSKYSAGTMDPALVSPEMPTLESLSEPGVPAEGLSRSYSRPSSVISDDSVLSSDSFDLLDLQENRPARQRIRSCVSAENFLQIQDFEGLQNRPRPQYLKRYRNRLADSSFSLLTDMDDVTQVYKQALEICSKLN
Receptor-type tyrosine-protein kinase FLT3 (Homo sapiens), sequence (P36888 whole entry): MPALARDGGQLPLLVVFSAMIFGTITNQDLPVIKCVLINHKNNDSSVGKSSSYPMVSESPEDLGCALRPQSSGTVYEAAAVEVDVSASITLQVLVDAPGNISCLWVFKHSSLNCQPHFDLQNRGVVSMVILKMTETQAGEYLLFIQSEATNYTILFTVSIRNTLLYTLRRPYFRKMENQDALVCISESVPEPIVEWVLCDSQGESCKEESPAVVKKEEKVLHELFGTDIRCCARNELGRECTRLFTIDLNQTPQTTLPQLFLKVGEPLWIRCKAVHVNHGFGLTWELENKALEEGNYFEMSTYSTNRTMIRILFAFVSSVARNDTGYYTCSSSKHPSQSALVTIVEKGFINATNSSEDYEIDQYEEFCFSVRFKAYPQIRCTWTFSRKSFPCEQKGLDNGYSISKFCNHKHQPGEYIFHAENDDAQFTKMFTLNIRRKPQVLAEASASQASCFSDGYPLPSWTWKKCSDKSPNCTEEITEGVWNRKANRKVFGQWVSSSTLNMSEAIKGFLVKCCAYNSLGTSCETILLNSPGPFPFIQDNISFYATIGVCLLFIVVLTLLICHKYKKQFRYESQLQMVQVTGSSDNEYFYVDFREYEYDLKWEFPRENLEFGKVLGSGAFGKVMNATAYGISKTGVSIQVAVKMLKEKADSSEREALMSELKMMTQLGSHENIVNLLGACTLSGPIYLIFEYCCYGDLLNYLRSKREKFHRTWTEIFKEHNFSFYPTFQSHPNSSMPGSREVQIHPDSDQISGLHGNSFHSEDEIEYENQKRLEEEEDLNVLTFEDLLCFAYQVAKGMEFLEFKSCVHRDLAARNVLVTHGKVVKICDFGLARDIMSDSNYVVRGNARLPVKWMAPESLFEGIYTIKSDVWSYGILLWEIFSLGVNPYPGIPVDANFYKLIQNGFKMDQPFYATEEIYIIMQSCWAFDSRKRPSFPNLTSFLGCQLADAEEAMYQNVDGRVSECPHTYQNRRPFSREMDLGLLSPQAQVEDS
Tyrosine-protein kinase TXK (Homo sapiens), sequence (P42681 whole entry): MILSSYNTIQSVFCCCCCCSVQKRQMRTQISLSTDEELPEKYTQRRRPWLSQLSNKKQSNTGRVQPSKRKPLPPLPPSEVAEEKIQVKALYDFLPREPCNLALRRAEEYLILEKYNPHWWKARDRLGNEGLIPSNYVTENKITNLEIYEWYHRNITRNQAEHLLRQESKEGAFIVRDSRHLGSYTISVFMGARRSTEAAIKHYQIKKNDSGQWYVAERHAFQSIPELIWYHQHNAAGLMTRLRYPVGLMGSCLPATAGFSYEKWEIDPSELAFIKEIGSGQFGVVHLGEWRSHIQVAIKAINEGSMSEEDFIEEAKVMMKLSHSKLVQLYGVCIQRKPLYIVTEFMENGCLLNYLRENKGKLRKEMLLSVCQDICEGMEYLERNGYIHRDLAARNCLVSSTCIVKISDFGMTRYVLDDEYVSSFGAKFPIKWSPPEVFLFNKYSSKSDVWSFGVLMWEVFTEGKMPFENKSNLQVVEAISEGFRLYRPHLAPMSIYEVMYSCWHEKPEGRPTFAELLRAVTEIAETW

As to `C=CC(=O)Nc1cc(Nc2ncc(Cl)c(O[C@@H]3CO[C@H]4[C@@H]3OC[C@H]4OC)n2)ccc1N(C)CCN(C)C`, the half-life (in general, the time in which the quantity being followed falls by half) in data set [1] was 54.6 min. The inhibition (in general, the change of the read-out against control, counted positive when it falls) worked out at 23% in data set [2]; 103% in [3]; 70% in data set [8]; 70% in data set [9]; 40% in [10]. Besides, the Activity came to 61.57% in the data set with U-937 [4], 64.92% with U-937 [5], 76.88% in the data set on U-937 [6] and 13.62% with U-937 [7].
